According to patent publication US11976083B2, “Inhibitors of peptidylarginine deiminases” (Gilead Sciences, Inc., priority 2020, dated 2024):

Biological target: T1, human PAD4 (Homo sapiens, UniProt Q9UM07)
T1 construct: human PAD4 (NM_012387), A2-P663, was PCR amplified; His-SUMO (N, cleaved yes); made in house; host or cells: E. coli BL21(DE3)
Assay: In vitro PAD4 BAEE biochemical assay
Conditions: BAEE substrate 3 mM, 5 nM PAD4, 2 mM calcium chloride; geometric mean of multiple experiments
Method in brief: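 Recombinant human PAD4 (5 nM final) with 2 mM CaCl2 was preincubated with compound 30 min at 25 °C in MOPS buffer pH 7.6, then reacted with 3 mM BAEE for 2 h at 25 °C. After EDTA stop, released ammonia was detected by o-phthalaldehyde/DTT fluorescence (ex 405/em 535 nm); IC50 from four-parameter fit, geometric mean.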

T1 sequence (Q9UM07 2-663): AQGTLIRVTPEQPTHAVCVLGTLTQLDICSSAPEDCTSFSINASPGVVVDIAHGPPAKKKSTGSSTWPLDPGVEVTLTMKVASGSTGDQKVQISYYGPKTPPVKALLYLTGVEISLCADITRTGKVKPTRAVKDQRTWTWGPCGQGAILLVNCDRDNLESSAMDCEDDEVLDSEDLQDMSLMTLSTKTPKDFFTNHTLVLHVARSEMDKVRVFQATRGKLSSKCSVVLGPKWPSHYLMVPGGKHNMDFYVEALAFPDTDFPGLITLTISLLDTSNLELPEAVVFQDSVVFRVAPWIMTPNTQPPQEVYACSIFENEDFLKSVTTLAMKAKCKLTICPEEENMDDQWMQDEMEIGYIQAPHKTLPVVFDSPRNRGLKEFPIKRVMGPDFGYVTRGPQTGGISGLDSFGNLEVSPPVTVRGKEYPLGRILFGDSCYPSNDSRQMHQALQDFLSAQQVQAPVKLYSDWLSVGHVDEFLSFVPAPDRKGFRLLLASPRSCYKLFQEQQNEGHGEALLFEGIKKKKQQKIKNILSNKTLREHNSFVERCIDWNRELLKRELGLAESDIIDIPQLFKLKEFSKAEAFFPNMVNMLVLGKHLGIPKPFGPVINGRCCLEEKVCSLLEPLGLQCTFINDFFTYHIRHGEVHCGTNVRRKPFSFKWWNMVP

IC50 [µM] | Compound
0.175 | COc1cc(C(=O)N2[C@H]3CC[C@@H]2[C@H](N)C3)cc2nc(-c3cc4ccc5nc4n3CCCCCC(=O)Nc3ncccc3-5)n(C)c12 [Example 92, 16-[5-[(1~{R},2~{R},4~{S})-2-amino-7-azabicyclo[2.2.1]heptane-7-carbonyl]-7-methoxy-1-methyl-benzimidazol-2-yl]-6,8,15,21-tetrazatetracyclo[13.5.2.0^{2,7}.0^{18,22}] docosa-1(21),2(7),3,5,16,18(22),19-heptaen-9-one]
0.205 | COc1cc(C(=O)N2CC[C@@H](OC(F)F)[C@@H](N)C2)cc2nc(-c3cc4ccc5nc4n3CC(F)(F)CCCCC3(CC(F)(F)C3)C(=O)N[C@@H]5C)n(C)c12 [Example 822, (11~{R})-17-[5-[(3~{S},4~ {R})-3-amino-4-(difluoromethoxy)piperidine-1-carbonyl]-7-methoxy-1-methyl-benzimidazol-2-yl]-1′,1′,3,3-tetrafluoro-11-methyl-spiro [1,10,19-triazatricyclo [10.5.2.0^{15,18}]nonadeca-12(19),13,15(18),16-tetraene-8,3′-cyclobutane]-9-one]
0.088 | C[C@H]1NC(=O)[C@@H]2[C@@H](CCCC(F)(F)Cn3c(-c4nc5cc(C(=O)N[C@H]6CNCC[C@@H]6F)c(F)cc5n4C4CC4)cc4ccc1nc43)C2(F)F [Example 390, 1-cyclopropyl-6-fluoro-~{N}-[(3~{S},4~{S})-4-fluoro-3-piperidyl]-2-[(2~{R},5~{S},7~{R})-6,6,11,11-tetrafluoro-2-methyl-4-oxo-3,13,19-triazatetracyclo[11.5.2.0^{5,7}.0^{16,20}]icosa-1(19),14,16(20),17-tetraen-14-yl]benzimidazole-5-carboxamide]
0.024 | C[C@H]1NC(=O)[C@@H]2C[C@H]2CC[C@@H]2[C@H](Cn3c(-c4nc5cc(C(=O)N[C@H]6CNCC[C@@H]6F)c(F)cc5n4C)cc4ccc1nc43)C2(F)F [Example 386, 2-[(3~{R},5~{R},8~{R},10~{R},13~{R})-4,4-difluoro-13-methyl-11-oxo-1,12,21-triazapentacyclo[12.5.2.0^{3,5}.0^{8,10}.0^ {17,20}]henicosa-14(21),15,17(20),18-tetraen-19-yl]-6-fluoro-~{N}-[(3~{S},4~{S})-4-fluoro-3-piperidyl]-1-methyl-benzimidazole-5-carboxamide]
0.036 | CO[C@@H]1CCN(C(=O)c2cc3nc(-c4cc5ccc6nc5n4CCCCC[C@@H]4C[C@H]4C(=O)N[C@@H]6C)n([C@H]4C[C@H]4F)c3cc2F)C[C@@H]1N [Example 827, (2~{R},5~{R},7~{R})-14-[5-[(3~{S},4~{R})-3-amino-4-methoxy-piperidine-1-carbonyl]-6-fluoro-1-[(1~{S},2~{R})-2-fluorocyclopropyl]benzimidazol-2-yl]-2-methyl-3,13,19-triazatetracyclo[11.5.2.0^ {5,7}.0^{16,20}]icosa-1(19),14,16(20),17-tetraen-4-one]
0.017 | C[C@H]1NC(=O)c2ccc(C(F)F)nc2CCCCCn2c(-c3nc4cc(C(=O)N5C[C@H](N)[C@@H]6CC[C@H]5C6)cc(F)c4n3[C@@H]3C[C@H]3F)cc3ccc1nc32 [Example 776, (2~{R})-17-[5-[(1~{S},4~{R}, 5~{R})-4-amino-2-azabicyclo [3.2.1]octane-2-carbonyl]-7-fluoro-1-[(1~{R},2~{R})-2-fluorocyclopropyl]benzimidazol-2-yl]-8-(difluoromethyl)-2-methyl-3,9,16,22-tetrazatetracyclo[14.5.2.0^ {5,10).0^{19,23}]tricosa-1(22),5(10),6,8,17,19(23),20-heptaen-4-one]
0.011 | C[C@H]1NC(=O)[C@@H]2C[C@@]2(F)CCCCCn2c(-c3nc4cc(C(=O)N5C[C@H](N)[C@@H]6CC[C@H]5C6)cc(F)c4n3C)cc3ccc1nc32 [Example 717, (2~{R},5~{S},7~{S})-14-[5-[(1~{S},4~{R},5~{R})-4-amino-2-azabicyclo[3.2.1]octane-2-carbonyl]-7-fluoro-1-methyl-benzimidazol-2-yl]-7-fluoro-2-methyl-3,13,19-triazatetracyclo [11.5.2.0^{5,7}.0^{16,20}] icosa-1(19),14,16(20), 17-tetraen-4-one]
0.051 | COc1cc(C(=O)N2C[C@H](N)[C@@H]3CC[C@H]2C3)cc2nc(-c3cc4ccc5nc4n3CCCCCCC(C)(C)C(=O)N[C@@H]5C)c(C)n12 [Example 928, (11~{R})-17-[7-[(1~{S},4~{R}, 5~{R})-4-amino-2-azabicyclo [3.2.1]octane-2-carbonyl]-5-methoxy-3-methyl-imidazo [1,2-a]pyridin-2-yl]-8,8,11-trimethyl-1,10,19-triazatricyclo [10.5.2.0^{15,18}]nonadeca-12(19),13,15(18), 16-tetraen-9-one]
0.175 | COc1cc2c(cc1C(=O)N[C@H]1CNCC[C@@H]1F)nc(-c1cc3ccc4nc3n1CCCCCCC(C)(C)C(=O)N[C@@H]4C)n2C [Example 592, ~{N}-[(3~{S},4~{S})-4-fluoro-3-piperidyl]-6-methoxy-1-methyl-2-[(11~{R})-8,8,11-trimethyl-9-oxo-1,10,19-triazatricyclo[10.5.2.0^ {15,18}]nonadeca-12,14,16,18-tetraen-17-yl]benzimidazole-5-carboxamide]
0.069 | COc1cc(C(=O)N2CC[C@@H](OC)[C@@H](N)C2)cc2nc(-c3cc4ccc5nc4n3CCCCC[C@@H]3C[C@@]3(C)C(=O)N[C@@H]5C)n(C)c12 [Example 583, (2~{R},5~{R},7~{R})-14-[5-[(3~{S),4~{R})-3-amino-4-methoxy-piperidine-1-carbonyl]-7-methoxy-1-methyl-benzimidazol-2-yl]-2,5-dimethyl-3,13,19-triazatetracyclo[11.5.2.0^ {5,7}.0^{16,20}]icosa-1(19), 14,16(20),17-tetraen-4-one]
0.559 | COc1cc(C(=O)N2CC[C@@H](OC)[C@@H](N)C2)cc2nc(-c3cc4ccc5nc4n3CCCCCCNC(=O)c3ncccc3-5)n(C)c12 [Example 675, 17-[5-[(3~{S},4~{R})-3-amino-4-methoxy-piperidine-1-carbonyl]-7-methoxy-1-methyl-benzimidazol-2-yl]-6,9,16,22-tetrazatetracyclo [14.5.2.0^{2,7}.0^{19,23}] tricosa-1(22),2,4,6,17,19(23), 20-heptaen-8-one]
0.103 | COc1cc(C(=O)N2C[C@H](N)[C@@H]3CC[C@H]2C3)cc2nc(-c3cc4ccc5nc4n3CCCCCc3nc(C(F)(F)F)ncc3C(=O)N[C@@H]5C)n(C3CC3)c12 [Example 934, (2~{R})-17-[5-[(1~{S),4~{R},5~ {R})-4-amino-2-azabicyclo [3.2.1]octane-2-carbonyl]-1-cyclopropyl-7-methoxy-benzimidazol-2-yl]-2-methyl-8-(trifluoromethyl)-3,7,9,16,22-pentazatetracyclo[14.5.2.0^ {5,10}.0^{19,23}]tricosa-1(21),5(10),6,8,17,19,22-heptaen-4-one]
0.034 | COc1cc(C(=O)N[C@H]2CNCC[C@@H]2F)cc2nc(-c3cc4ccc5nc4n3CCCCC[C@H]3[C@H](C(=O)N[C@@H]5C)C3(F)F)n(C)c12 [Example 368, 2-[(2~{R},5~{R},7~{S})-6,6-difluoro-2-methyl-4-oxo-3,13,19-triazatetracyclo[11.5.2.0^{5,7}.0^{16,20}]icosa-1(19),14,16(20),17-tetraen-14-yl]- ~{N}-[(3~{S},4~{S})-4-fluoro-3-piperidyl]-7-methoxy-1-methyl-benzimidazole-5-carboxamide]
